Assay results taken from PMC9995496, “A screen for MeCP2-TBL1 interaction inhibitors using a luminescence-based assay” (Scientific Reports, 2023).
Counter-ions that a name gives are not always drawn.

Tested on: PRKACA-PRKAR2A interaction (SmBiT-PRKACA / LgBiT-PRKAR2A), protein kinase A
Parameters: NanoLuc complementation counter-screen in cell extract, PRKACA with PRKAR2A, loss of luminescence, detects NanoLuc interference
Details: counter-screen for NanoLuc interference, 0.5 h, 20 µM, inhibitor, Inh (PKA)

Structure (SMILES) | Inh (PKA)
Cc1cc(Nc2cc(N3CCN(C)CC3)nc(/C=C/c3ccccc3)n2)n[nH]1 [UM0141724:01, ENMD-2076 L-(+)-Tartaric acid] | 17.98%
Cc1cc(Nc2cc(N3CCN(C)CC3)nc(/C=C/c3ccccc3)n2)n[nH]1 [UM0141725:01, ENMD-2076] | 15.95%
C[C@@H]1CCN(C(=O)CC#N)C[C@@H]1N(C)c1ncnc2[nH]ccc12 [UM0141728:01, Tofacitinib (CP-690550) Citrate] | -4.37%

Same assay, conditions: counter-screen for NanoLuc interference; 0.5 h, 20 µM; inhibitor

Structure (SMILES) | Inh (PKA)
O=C(/C=C/c1cccc(S(=O)(=O)Nc2ccccc2)c1)NO [UM0141702:01, Belinostat (PXD101)] | 1.422%
CN(C)Cc1c(C(=O)NCCOc2ccc(C(=O)NO)cc2)oc2ccccc12 [UM0141704:01, PCI-24781 (CRA-024781)] | 0.8331%
O=C(/C=C/c1ccc(CN(CCO)CCc2c[nH]c3ccccc23)cc1)NO [UM0141707:01, LAQ824 (NVP-LAQ824,Dacinostat)] | 3.4%
CC(C)[C@H](C(=O)Nc1ccc(C(=O)NO)cc1)c1ccccc1 [UM0141708:01, AR-42 (OSU-HDAC42)] | 2.219%
CN(C)c1ccc(C(=O)NCCCCCCC(=O)NO)cc1 [UM0141709:01, M344] | 1.639%
COc1cc2c(Nc3ccc(NC(=O)c4ccccc4)cc3)ncnc2cc1OCCCN1CCOCC1 [UM0141710:01, ZM 447439] | 1.101%
O=C(O)c1ccc(Nc2ncc3c(n2)-c2ccc(Cl)cc2C(c2c(F)cccc2F)=NC3)cc1 [UM0141711:01, MLN8054] | 70.21%
Nc1nc(Nc2ccc(S(N)(=O)=O)cc2)nn1C(=O)c1c(F)cccc1F [UM0141712:01, JNJ-7706621] | 15.42%
CO[C@@H](C(=O)N1Cc2[nH]nc(NC(=O)c3ccc(N4CCN(C)CC4)cc3)c2C1)c1ccccc1 [UM0141713:01, Danusertib (PHA-739358)] | 4.91%
O=C(Nc1c[nH]nc1-c1nc2ccc(CN3CCOCC3)cc2[nH]1)NC1CC1 [UM0141714:01, AT9283] | 10.96%
CCS(=O)(=O)Nc1ccc2c(c1)/C(=C(/Nc1ccc(CN3CCCCC3)cc1)c1ccccc1)C(=O)N2 [UM0141715:01, Hesperadin] | 53.45%
Cc1csc(-c2nnc(Nc3ccc(Oc4ncccc4-c4ccnc(N)n4)cc3)c3ccccc23)c1 [UM0141716:01, AMG-900] | 63.02%
O=C(O)[C@]1(Cc2cccc(Nc3nccs3)n2)CC[C@@H](Oc2cccc(Cl)c2F)CC1 [UM0141717:01, MK-5108 (VX-689)] | 44.53%
O=C(Nc1cccc(Cl)c1)Nc1ncc(CCNc2ncnc3ccsc23)s1 [UM0141718:01, SNS-314 Mesylate] | 29.21%
CCc1cccc(CC)c1NC(=O)N1Cc2[nH]nc(NC(=O)c3ccc(N4CCN(C)CC4)cc3)c2C1 [UM0141719:01, PHA-680632] | 7.851%
O=C(c1ccc(/C=C/c2n[nH]c3ccccc23)cc1)N1CCNCC1 [UM0141720:01, KW 2449] | 34.71%
CCS(=O)(=O)c1cccc(-c2cc(C(=O)NC3CCN(C)CC3)c(C)c3[nH]c4ncc(C)cc4c23)c1 [UM0141721:01, TAK-901] | 28.15%
Cc1nc(N)sc1-c1ccnc(Nc2ccc(N3CCOCC3)cc2)n1 [UM0141722:01, CYC116] | 23.62%
CCN1CCN(C(=O)Cc2ccc(Nc3ncc(F)c(Nc4ccc(C(=O)Nc5ccccc5Cl)cc4)n3)cc2)CC1 [UM0141723:01, Aurora A Inhibitor I] | 22.92%
CN(C)c1ccc(-c2nc3ncc(Cl)c(N4CCN(CC(=O)Nc5nccs5)CC4)c3[nH]2)cc1 [UM0141726:01, CCT129202] | 76.32%
Cc1cc(CN2CCN(c3c(Br)cnc4nc(-c5ccc(N6CCN(C)CC6)cc5)[nH]c34)CC2)no1 [UM0141727:01, CCT137690] | 46.74%
